Values of other authors, collected in patent US8592424B2, “Topical regional neuro-affective therapy” (Afgin Pharma LLC, priority 2008, dated 2013).
Counter-ions that a name gives are not always drawn.

Legend:
[1] = test system: patients with advanced Parkinson's disease, "off periods"
[2] = test system: alpha-adrenergic receptors; settings: in vitro tests; some alpha-adrenergic receptors
serotonin receptors = settings: in vitro tests
[3] = test system: patients, some with impotence with erectile dysfunction; settings: apomorphine injections, observed and reported
D4 dopamine receptor = D4 dopamine receptor (Homo sapiens, UniProt P21917); settings: in vitro tests
D2 dopamine receptor = D2 dopamine receptor (Homo sapiens, UniProt P14416); settings: in vitro tests
D3 dopamine receptor = D3 dopamine receptor (Homo sapiens, UniProt P35462); settings: in vitro tests
dopamine D1 receptor = dopamine D1 receptor (Homo sapiens, UniProt P21728); settings: in vitro tests
[4] = reported clinical trials, despite using Tigan

D2 dopamine receptor, sequence (P14416 whole entry): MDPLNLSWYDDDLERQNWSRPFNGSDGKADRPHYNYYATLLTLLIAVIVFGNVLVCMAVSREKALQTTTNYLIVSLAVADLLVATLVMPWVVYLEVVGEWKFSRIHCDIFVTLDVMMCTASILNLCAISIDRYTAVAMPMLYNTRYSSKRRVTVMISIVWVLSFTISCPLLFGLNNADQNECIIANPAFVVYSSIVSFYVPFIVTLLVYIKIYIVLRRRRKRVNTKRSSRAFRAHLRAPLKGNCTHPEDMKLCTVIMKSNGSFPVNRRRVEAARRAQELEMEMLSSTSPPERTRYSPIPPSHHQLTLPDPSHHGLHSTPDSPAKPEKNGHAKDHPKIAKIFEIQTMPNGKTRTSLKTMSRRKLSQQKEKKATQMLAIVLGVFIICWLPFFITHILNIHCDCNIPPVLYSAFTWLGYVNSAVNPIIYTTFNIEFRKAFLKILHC
D4 dopamine receptor, sequence (P21917 whole entry): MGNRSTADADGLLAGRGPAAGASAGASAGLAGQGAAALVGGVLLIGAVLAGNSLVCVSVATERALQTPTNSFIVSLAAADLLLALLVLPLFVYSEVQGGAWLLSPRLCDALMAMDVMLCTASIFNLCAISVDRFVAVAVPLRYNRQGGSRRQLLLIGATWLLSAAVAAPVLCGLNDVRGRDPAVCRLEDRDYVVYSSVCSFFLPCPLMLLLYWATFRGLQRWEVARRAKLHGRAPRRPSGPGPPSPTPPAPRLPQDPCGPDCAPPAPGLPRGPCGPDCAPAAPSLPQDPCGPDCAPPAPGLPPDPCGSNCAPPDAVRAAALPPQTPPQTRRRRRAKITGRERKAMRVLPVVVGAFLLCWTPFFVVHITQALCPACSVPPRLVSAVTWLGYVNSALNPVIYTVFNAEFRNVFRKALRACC
dopamine D1 receptor, sequence (P21728 whole entry): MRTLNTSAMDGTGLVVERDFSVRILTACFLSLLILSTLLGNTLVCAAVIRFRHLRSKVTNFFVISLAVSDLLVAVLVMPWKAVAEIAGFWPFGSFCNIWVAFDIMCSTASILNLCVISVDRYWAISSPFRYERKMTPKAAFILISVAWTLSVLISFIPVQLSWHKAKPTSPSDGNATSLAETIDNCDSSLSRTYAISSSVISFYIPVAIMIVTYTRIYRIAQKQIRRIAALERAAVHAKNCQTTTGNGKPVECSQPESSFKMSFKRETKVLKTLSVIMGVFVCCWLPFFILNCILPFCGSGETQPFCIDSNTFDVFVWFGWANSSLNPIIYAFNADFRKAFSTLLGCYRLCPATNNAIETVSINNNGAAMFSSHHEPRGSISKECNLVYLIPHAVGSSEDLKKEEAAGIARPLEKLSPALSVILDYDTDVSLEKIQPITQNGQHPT
D3 dopamine receptor, sequence (P35462 whole entry): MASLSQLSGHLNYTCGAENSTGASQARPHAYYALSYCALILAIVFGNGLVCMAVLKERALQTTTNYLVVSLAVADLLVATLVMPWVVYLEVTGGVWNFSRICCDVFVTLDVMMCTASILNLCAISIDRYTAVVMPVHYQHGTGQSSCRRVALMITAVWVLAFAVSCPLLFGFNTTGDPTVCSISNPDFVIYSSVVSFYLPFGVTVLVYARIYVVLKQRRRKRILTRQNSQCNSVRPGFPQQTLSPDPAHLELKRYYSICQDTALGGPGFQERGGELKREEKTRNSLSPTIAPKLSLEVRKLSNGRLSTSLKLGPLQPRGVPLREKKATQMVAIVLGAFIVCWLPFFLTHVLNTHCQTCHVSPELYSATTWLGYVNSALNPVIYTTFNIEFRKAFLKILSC

SMILES | other commonly reported adverse events in clinical trials ([1]; oral and injectible forms) | patients experiencing nausea [1, 4] [%] | patients experiencing vomiting [1, 4] [%] | time to take effect ([1]; subcutaneous injection, reported) [min] | affinity [2] | affinity (serotonin receptors) | solubility in water (at 80 degrees Celsius) | effect on sexual function [3] | affinity (D4 dopamine receptor) | affinity (D2 dopamine receptor) | affinity (D3 dopamine receptor) | affinity (dopamine D1 receptor) | water solubility
CN1CCc2cccc3c2[C@H]1Cc1ccc(O)c(O)c1-3 [Apomorphine hydrochloride] | dizziness, yawning, somnolence, rhinorrhea, sweating, flushing, pallor, hallucinations, edema, and chest pain | 31 | 11 | 10 to 15 | moderate | low | soluble | improvement in sexual function | high | moderate | moderate | low | 
c1cnc2cc3c(cc2n1)[C@@H]1CNC[C@H]3C1 [varenicline] |  |  |  |  |  |  |  |  |  |  |  |  | high
